Data taken from US20260250257A1, “ANTIBACTERIAL AND SYNERGISTIC ACTIVE COMPOUND AND USE THEREOF” (EAST CHINA UNIVERSITY OF SCIENCE AND TECHNOLOGY, priority 2023, published 2026).
In brackets after ≈: the same amount, converted by molar mass.

Tests used:
Format in all cases: cell-based
[1] = tested on: ATCC9027 strain (Pseudomonas aeruginosa); assay: Checkerboard antibacterial synergistic activity test with polymyxin E (FIC); parameters: key: FIC≤0.5 synergy; 0.5–1 additive; 1–2 indifferent; ≥2 antagonism; conditions: combined with polymyxin E
Procedure, shortened: (§1)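 First, two-fold series of polymyxin E (16–0.015 μg/ml) and compound (256–4 μg/ml) were made in MH broth. Next, combinations went into a 96-well grid, bacterial liquid was added, and plates sat at 37° C. for 16 h. Finally, FIC was computed and classed (≤0.5 synergistic).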

[2] = tested on: ATCC25922 strain (Escherichia coli); assay: as above; parameters: key: FIC≤0.5 synergy; 0.5–1 additive; 1–2 indifferent; ≥2 antagonism; conditions: combined with polymyxin E
Procedure, shortened: as §1

[3] = tested on: ATCC19606 strain (Acinetobacter baumannii); assay: as above; parameters: key: FIC≤0.5 synergy; 0.5–1 additive; 1–2 indifferent; ≥2 antagonism; conditions: combined with polymyxin E
Procedure, shortened: as §1

[4] = tested on: ATCC13883 strain (Klebsiella pneumoniae); assay: as above; parameters: key: FIC≤0.5 synergy; 0.5–1 additive; 1–2 indifferent; ≥2 antagonism; conditions: combined with polymyxin E
Procedure, shortened: as §1

[5] = tested on: ATCC9027 strain (Pseudomonas aeruginosa); assay: Broth microdilution, antibacterial activity of the compound used alone
Source text: (§2) The broth microdilution method was used to test the antibacterial effects of the compounds of the present invention against various Gram-negative bacterial strains when used alone.

[6] = tested on: ATCC25922 strain (Escherichia coli); assay: as above
Source text: as §2

[7] = tested on: ATCC19606 strain (Acinetobacter baumannii); assay: as above
Source text: as §2

[8] = tested on: ATCC13883 strain (Klebsiella pneumoniae); assay: as above
Source text: as §2

SMILES	Synergistic activity (FIC value) ATCC9027 [1]	Synergistic activity (FIC value) ATCC25922 [2]	Synergistic activity (FIC value) ATCC19606 [3]	Synergistic activity (FIC value) ATCC13883 [4]	Antibacterial activity of the compound of Formula I, ATCC9027 [5] [µg/mL]	Antibacterial activity of the compound of Formula I, ATCC25922 [6] [µg/mL]	Antibacterial activity of the compound of Formula I, ATCC19606 [7] [µg/mL]	Antibacterial activity of the compound of Formula I, ATCC13883 [8] [µg/mL]	MIC ([5]; read-out: Antibacterial activity of the compound of Formula I, ATCC9027) [µg/mL]	MIC ([6]; read-out: Antibacterial activity of the compound of Formula I, ATCC25922) [µg/mL]	MIC ([7]; read-out: Antibacterial activity of the compound of Formula I, ATCC19606) [µg/mL]	MIC ([8]; read-out: Antibacterial activity of the compound of Formula I, ATCC13883) [µg/mL]
COc1ccc(Oc2cccc(-c3c[nH]c(N=C(N)N)n3)c2)c(C)c1 [Compound I-93]	0.28	0.18	0.03	0.16	256	256	256	256				
NC(N)=Nc1nc(-c2cc(I)c(O)c(I)c2)co1 [Compound I-35]	1.25	0.52	0.13	0.19	256	256	256	256				
CSc1cc2c(C)cccn2c1-c1csc(N=C(N)N)n1 [Compound I-124]	0.04	0.04	0.38	0.19	256	256	256	256				
CS(=O)(=O)c1ccc(Oc2ccccc2-c2nc(N=C(N)N)sc2Cl)cc1 [Compound I-103]	1.25	0.53	1.25	1.25	256	256	256	256				
NC(N)=Nc1nc(-c2cccc(N3CCOCC3)c2)cs1 [Compound I-120]	0.25	0.75	1.25	0.28	256	256	256	256				
Cc1ccc2c(-c3coc(N=C(N)N)n3)cccc2c1 [Compound I-59]	0.62	0.39	0.15	0.33	256	256	256	256				
Cc1ccc(Oc2cccc(-c3coc(N=C(N)N)n3)c2)c(C)c1 [Compound I-92]	0.04	0.04	0.38	0.19	256	256	256	256				
N#Cc1cc(Oc2ccccc2I)cc(-c2coc(N=C3NCCCN3)n2)c1 [Compound I-157]	0.06	0.14	0.31	0.09	256	256	256	256				
NC(N)=Nc1nc(-c2ccc(OCc3ccccc3)c3nc(O)ccc23)cs1 [Compound I-114]	1.25	0.5	0.27	1.25					256 (≈ 654 µM)	256 (≈ 654 µM)	256 (≈ 654 µM)	256 (≈ 654 µM)
CC(=O)N(C)c1cccc(-c2csc(N=C(N)N)n2)c1 [Compound I-30]	1.25	0.52	0.13	0.19	256	256	256	256				
Fc1ccc(-c2csc(N=C3NCCCN3)n2)c(Oc2ccc(Cl)cc2Cl)c1 [Compound I-151]	0.28	0.18	0.03	0.16	256	256	256	256				
NC(N)=Nc1nc(-c2cccc(Oc3ccccc3Cl)c2)cs1 [Compound I-94]	0.52	0.26	0.04	0.19	256	256	256	256				
Cc1ccccc1Oc1ccccc1-c1csc(N=C(N)N)n1 [Compound I-81]	0.06	0.14	0.31	0.09	256	256	256	256				
NC(N)=Nc1nc(-c2cccc3ncsc23)co1 [Compound I-71]	1.25	0.52	0.13	0.19	256	256	256	256				
Cc1sc(N=C(N)N)nc1-c1ccccc1Oc1ccccn1 [Compound I-101]	0.52	1.25	0.25	1.25	256	256	256	256				
